The values below come from paper PMC12198292, “Advancing in vitro assessment of iodide uptake inhibition: integrating a novel biotransformation pretreatment step” (Archives of Toxicology, 2025).

For one data set, the system named is HEK293T NIS02 cells. Kind of data set: Neutral red uptake viability assay, HEK293T NIS02. As to conditions: 100 µM.
Data set [1] concerns the target T1, human NIS (Homo sapiens, UniProt Q92911).
T1 sequence (Q92911 1-643): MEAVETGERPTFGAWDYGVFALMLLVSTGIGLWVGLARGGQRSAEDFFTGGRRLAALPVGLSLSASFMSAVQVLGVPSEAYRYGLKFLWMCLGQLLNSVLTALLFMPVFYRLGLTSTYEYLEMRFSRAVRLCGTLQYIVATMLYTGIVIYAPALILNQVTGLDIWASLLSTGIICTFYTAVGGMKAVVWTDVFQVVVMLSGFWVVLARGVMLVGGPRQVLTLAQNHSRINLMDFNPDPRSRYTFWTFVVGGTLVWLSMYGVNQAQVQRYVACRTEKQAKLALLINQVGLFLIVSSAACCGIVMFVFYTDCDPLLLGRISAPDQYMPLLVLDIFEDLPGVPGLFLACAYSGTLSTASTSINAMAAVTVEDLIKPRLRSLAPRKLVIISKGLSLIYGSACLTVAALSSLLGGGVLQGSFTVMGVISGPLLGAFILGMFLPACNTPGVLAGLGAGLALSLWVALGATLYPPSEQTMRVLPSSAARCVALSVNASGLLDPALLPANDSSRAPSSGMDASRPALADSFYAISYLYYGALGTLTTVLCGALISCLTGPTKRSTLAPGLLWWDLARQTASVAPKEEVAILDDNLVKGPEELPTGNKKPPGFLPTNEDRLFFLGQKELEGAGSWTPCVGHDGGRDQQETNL
The experiment in a line: NIS-inhibition assay (iodide uptake, Sandell–Kolthoff reaction) on HEK293T NIS 02. The format is cell-based. Details: host or cells: HEK293T (lentiviral transduction, puromycin selection, GFP sorting; lines NIS 02 and NIS C). The following applies: NIS IC50 HEK293T NIS 02.

Data set [2] concerns the target T1, human NIS. The experiment in a line: NIS-inhibition assay (iodide uptake, Sandell–Kolthoff reaction) on HEK293T NIS C. Type of data set: cell-based. Details: host or cells: HEK293T (lentiviral transduction, puromycin selection, GFP sorting; lines NIS 02 and NIS C).
Data set [3] addresses T1, human NIS. Details: host or cells: HEK293T (lentiviral transduction, puromycin selection, GFP sorting; lines NIS 02 and NIS C). The following applies: read-out: Data from literature NIS IC20; cited from earlier work.
Another data set can be described thus: in vitro. As to conditions: human.
In data set [4] the target is T2, NIS (Rattus norvegicus, UniProt Q63008).
T2 construct: the endogenously NIS-expressing rat FRTL-5 cell line; host or cells: FRTL-5 (CVCL_0265)
T2 sequence (Q63008 1-618): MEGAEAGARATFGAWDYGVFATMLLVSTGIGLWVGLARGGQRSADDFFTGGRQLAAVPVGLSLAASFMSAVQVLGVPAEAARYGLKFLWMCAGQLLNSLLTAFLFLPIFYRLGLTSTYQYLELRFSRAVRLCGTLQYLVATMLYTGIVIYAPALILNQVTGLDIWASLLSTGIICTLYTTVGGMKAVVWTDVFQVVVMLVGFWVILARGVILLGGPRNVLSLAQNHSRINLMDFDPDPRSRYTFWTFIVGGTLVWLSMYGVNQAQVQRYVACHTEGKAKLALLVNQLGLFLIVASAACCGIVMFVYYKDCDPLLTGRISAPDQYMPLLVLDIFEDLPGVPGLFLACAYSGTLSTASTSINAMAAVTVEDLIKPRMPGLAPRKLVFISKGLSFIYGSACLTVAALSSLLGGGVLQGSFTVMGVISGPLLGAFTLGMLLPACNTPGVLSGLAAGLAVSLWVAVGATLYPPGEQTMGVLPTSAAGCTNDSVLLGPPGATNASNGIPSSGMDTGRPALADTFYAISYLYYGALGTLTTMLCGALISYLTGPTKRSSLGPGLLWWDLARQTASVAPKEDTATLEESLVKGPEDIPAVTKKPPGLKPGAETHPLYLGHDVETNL
The following applies: FRTL-5; SK; ref Wu et al., 2016; read-out: Data from literature NIS IC50; cited from earlier work.

Data set [5] deals with T1, human NIS. The experiment in a line: Biotransformation (BTS, rat S9)-augmented NIS-inhibition assay, HEK293T NIS02.
Data set [6] concerns the target T2, NIS. Kind of data set: NIS-inhibition assay (iodide uptake, Sandell–Kolthoff reaction) on FRTL-5. As to conditions: mean ± SD, ≥ 3 independent experiments; 2 h exposure; SK reaction. The format is cell-based.

Where two headings read alike, the source gives them in different places.

Usually IC50 stands for the concentration that inhibits the measured activity by half. On to `Oc1cc(Cl)ccc1Oc1ccc(Cl)cc1Cl` [TCS, Triclosan], for which the “cytotoxicity in the standard NIS assay (NR and CTG)” value with HEK293T NIS02 cells was “cytotoxic”. Further, the IC50 is 18.5 ± 9.9 µM at human NIS [1], 34.8 ± 23.5 µM against human NIS [2], 21.3 µM at NIS [4] and 39.3 ± 18.9 µM against NIS [6]. Moreover, the IC20 at human NIS [3] is 2.6 µM; at human NIS [5] (read-out: NIS inhibition IC20 D S9, W/cof, 5 h preincubation with denatured S9 and cofactors, three independent experiments), 1.07 ± 0.65 µM; at human NIS [5] (read-out: NIS inhibition IC20 SM), 1.78 ± 1.12 µM; on human NIS [5] (read-out: NIS inhibition IC20 W/O S9, W/cof, 5 h preincubation without S9 fraction, with all cofactors, three independent experiments), 1.02 ± 0.82 µM. Moreover, the IC20 at 2 h in the data set “in vitro” is 45.9 µM. Besides, at human NIS [5], the “increase of IC20 by preincubation in fully active BTS setup compared to the denatured BTS setup” value is given as “approximately 5 fold”. The “effect of fully active BTS (W/S9, W/cof) on NIS inhibition versus control setups” value at human NIS [5] (two-way ANOVA, p < 0.05) is reported as “statistically significant reduction in NIS inhibition”.
